Data published in ChEMBL document CHEMBL4725309, “Potent, non-covalent reversible BTK inhibitors with 8-amino-imidazo[1,5-a]pyrazine core featuring 3-position bicyclic ring substitutes” (Bioorg Med Chem Lett, 2020).

Key:
[1] = target: T1, Tyrosine-protein kinase BTK (Homo sapiens, UniProt Q06187); experiment: Inhibition of BTK in human PBMC assessed as reduction in cell surface CD69 expression preincubated for 1 hr followed by stimulation with goat anti-human IgM F(ab')2 for 18 hrs by immunostaining analysis; type: tissue-based
T1 sequence (Q06187 whole entry): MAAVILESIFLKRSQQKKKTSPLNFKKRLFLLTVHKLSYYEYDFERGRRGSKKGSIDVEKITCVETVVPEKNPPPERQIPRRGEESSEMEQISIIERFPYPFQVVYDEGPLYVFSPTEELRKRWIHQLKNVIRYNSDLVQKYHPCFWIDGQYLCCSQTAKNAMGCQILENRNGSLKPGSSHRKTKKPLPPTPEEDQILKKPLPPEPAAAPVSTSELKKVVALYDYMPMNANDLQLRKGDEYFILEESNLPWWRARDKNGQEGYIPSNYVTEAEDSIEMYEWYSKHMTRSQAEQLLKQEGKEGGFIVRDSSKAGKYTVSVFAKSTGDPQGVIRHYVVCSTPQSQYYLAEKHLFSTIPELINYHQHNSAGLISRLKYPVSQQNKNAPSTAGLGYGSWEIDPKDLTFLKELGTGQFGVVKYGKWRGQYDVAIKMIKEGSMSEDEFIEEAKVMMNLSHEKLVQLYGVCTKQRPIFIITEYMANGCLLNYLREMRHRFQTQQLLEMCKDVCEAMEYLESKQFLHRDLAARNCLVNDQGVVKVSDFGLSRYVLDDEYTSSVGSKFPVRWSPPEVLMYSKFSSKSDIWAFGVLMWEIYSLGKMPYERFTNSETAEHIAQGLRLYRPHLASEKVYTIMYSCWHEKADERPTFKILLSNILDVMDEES

[2] = target: T1, Tyrosine-protein kinase BTK; experiment: Inhibition of BTK in human whole blood assessed as reduction in cell surface CD69 expression preincubated for 1 hr followed by stimulation with anti-CD79b for 3 hrs by immunostaining analysis; type: tissue-based
[3] = target: T1, Tyrosine-protein kinase BTK; experiment: Inhibition of recombinant full length BTK (unknown origin) expressed in baculovirus infected Sf9 cells using Biotin-EQEDEPEGDYFEWLE-NH2 peptide as substrate incubated for 60 mins followed by further incubation with substrate and ATP for 120 mins by TR-FRET assay
[4] = target: Tyrosine-protein kinase Blk (Homo sapiens, UniProt P51451); experiment: Inhibition of BLK (unknown origin)
Chain of Tyrosine-protein kinase Blk (P51451 whole entry): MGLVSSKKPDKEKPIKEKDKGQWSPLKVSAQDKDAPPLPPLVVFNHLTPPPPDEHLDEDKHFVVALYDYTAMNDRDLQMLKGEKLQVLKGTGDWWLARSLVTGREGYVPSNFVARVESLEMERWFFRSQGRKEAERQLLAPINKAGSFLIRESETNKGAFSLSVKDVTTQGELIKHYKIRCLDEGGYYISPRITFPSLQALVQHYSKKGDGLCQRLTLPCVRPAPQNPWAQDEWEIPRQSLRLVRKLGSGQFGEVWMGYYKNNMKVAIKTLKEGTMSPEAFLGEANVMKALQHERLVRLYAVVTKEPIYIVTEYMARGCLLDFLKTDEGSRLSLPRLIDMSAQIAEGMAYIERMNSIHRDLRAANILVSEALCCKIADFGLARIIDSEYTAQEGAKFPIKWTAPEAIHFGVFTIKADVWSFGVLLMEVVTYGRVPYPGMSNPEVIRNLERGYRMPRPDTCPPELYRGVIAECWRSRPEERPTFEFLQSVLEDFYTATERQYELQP

[5] = target: T2, Cytoplasmic tyrosine-protein kinase BMX (Homo sapiens, UniProt P51813); experiment: Inhibition of BMX (unknown origin)
T2 sequence (P51813 whole entry): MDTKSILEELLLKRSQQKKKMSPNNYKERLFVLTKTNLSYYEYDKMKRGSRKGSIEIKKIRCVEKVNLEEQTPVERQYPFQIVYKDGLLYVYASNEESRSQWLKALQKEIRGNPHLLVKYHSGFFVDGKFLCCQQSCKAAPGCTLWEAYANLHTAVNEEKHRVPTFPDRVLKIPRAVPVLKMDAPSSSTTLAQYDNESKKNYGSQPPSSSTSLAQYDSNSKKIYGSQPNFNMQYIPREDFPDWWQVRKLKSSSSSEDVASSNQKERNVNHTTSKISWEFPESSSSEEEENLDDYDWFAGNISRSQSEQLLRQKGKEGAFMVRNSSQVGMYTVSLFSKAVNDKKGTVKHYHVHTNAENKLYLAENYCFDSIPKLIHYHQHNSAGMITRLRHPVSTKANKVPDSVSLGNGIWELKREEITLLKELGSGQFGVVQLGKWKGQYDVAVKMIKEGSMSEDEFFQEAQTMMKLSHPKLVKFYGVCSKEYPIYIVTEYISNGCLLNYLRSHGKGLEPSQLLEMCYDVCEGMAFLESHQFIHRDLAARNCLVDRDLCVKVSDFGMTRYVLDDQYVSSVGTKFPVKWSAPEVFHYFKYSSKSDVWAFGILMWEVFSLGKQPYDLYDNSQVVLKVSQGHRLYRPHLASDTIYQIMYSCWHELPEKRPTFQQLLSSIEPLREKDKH

[6] = target: Tyrosine-protein kinase CSK (Homo sapiens, UniProt P41240); experiment: Inhibition of CSK (unknown origin)
[7] = target: Receptor tyrosine-protein kinase erbB-4 (Homo sapiens, UniProt Q15303); experiment: Inhibition of ERBB4 (unknown origin)
Chain of Receptor tyrosine-protein kinase erbB-4 (Q15303 whole entry): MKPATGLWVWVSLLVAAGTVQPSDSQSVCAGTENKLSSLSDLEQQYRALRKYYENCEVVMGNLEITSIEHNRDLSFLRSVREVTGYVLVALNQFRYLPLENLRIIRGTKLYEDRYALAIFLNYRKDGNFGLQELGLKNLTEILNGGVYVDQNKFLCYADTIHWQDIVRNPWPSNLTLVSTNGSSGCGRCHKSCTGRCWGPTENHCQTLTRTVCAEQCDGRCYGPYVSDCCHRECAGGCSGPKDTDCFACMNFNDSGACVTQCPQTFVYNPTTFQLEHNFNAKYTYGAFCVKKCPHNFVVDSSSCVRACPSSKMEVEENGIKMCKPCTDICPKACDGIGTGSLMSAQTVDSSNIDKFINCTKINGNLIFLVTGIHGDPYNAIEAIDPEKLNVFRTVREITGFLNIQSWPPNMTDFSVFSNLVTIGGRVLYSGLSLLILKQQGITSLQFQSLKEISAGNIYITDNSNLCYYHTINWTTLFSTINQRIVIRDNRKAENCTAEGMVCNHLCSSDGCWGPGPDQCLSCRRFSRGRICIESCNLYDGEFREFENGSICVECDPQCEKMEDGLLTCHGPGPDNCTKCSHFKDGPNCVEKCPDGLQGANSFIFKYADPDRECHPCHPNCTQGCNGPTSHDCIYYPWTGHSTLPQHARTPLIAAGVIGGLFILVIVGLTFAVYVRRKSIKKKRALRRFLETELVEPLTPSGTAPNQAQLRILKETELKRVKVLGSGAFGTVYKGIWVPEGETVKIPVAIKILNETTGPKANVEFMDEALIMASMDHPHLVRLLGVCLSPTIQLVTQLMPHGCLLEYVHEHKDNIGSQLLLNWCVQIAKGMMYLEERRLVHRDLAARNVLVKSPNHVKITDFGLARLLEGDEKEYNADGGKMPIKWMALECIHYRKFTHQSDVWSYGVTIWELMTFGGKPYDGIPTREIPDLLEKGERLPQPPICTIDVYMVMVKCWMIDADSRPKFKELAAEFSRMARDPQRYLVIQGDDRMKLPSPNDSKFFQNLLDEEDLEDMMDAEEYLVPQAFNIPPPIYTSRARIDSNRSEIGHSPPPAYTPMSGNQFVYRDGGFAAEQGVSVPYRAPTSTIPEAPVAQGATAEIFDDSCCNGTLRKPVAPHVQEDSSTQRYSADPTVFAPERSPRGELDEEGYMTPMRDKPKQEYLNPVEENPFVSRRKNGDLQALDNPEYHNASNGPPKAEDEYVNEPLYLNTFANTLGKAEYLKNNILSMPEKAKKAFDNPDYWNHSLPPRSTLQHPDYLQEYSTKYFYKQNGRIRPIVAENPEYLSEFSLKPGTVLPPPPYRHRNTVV

[8] = target: Tyrosine-protein kinase Fgr (Homo sapiens, UniProt P09769); experiment: Inhibition of FGR (unknown origin)
Chain of Tyrosine-protein kinase Fgr (P09769 whole entry): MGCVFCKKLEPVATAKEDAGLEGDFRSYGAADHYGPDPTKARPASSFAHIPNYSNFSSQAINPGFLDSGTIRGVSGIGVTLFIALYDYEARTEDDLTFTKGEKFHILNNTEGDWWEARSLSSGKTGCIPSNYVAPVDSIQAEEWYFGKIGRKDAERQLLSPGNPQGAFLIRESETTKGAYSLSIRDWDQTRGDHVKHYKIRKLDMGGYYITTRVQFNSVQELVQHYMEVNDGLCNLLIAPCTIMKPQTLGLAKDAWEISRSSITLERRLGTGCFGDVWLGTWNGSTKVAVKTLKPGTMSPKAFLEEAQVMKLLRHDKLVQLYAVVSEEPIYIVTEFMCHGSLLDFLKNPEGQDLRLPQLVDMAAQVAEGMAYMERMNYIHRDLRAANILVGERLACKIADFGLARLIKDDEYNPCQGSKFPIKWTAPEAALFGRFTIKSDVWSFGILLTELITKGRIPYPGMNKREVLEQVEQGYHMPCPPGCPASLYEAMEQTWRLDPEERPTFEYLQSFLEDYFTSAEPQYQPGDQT

[9] = target: Tyrosine-protein kinase FRK (Homo sapiens, UniProt P42685); experiment: Inhibition of FRK (unknown origin)
Chain of Tyrosine-protein kinase FRK (P42685 whole entry): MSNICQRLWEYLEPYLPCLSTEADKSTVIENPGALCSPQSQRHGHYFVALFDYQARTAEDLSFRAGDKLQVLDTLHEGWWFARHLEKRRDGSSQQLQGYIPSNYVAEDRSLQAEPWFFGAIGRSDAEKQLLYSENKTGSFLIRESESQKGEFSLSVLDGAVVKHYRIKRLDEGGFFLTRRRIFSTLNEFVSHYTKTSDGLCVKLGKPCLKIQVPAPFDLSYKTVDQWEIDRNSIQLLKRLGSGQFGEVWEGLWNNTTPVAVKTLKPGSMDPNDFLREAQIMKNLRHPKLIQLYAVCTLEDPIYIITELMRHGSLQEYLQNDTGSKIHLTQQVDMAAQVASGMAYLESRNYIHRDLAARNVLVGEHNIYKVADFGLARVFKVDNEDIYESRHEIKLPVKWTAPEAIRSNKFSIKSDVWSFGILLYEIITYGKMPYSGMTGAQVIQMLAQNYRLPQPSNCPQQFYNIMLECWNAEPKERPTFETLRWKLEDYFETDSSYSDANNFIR

[10] = target: Tyrosine-protein kinase Fyn (Homo sapiens, UniProt P06241); experiment: Inhibition of FYN (unknown origin)
Chain of Tyrosine-protein kinase Fyn (P06241 whole entry): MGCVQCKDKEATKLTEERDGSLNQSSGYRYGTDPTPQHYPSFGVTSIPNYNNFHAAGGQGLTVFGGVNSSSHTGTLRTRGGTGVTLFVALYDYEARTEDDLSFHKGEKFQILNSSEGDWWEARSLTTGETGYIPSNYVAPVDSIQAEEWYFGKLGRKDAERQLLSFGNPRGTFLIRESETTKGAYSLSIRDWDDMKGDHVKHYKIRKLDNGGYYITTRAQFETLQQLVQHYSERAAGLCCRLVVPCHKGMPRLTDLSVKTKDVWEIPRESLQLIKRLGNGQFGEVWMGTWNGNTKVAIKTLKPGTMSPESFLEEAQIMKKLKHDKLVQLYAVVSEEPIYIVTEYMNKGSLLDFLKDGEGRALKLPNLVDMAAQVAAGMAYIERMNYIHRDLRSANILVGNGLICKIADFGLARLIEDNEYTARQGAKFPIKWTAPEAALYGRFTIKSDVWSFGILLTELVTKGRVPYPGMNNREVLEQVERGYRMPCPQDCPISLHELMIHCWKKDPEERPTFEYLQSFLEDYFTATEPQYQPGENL

[11] = target: Tyrosine-protein kinase Lck (Homo sapiens, UniProt P06239); experiment: Inhibition of LCK (unknown origin)
Chain of Tyrosine-protein kinase Lck (P06239 whole entry): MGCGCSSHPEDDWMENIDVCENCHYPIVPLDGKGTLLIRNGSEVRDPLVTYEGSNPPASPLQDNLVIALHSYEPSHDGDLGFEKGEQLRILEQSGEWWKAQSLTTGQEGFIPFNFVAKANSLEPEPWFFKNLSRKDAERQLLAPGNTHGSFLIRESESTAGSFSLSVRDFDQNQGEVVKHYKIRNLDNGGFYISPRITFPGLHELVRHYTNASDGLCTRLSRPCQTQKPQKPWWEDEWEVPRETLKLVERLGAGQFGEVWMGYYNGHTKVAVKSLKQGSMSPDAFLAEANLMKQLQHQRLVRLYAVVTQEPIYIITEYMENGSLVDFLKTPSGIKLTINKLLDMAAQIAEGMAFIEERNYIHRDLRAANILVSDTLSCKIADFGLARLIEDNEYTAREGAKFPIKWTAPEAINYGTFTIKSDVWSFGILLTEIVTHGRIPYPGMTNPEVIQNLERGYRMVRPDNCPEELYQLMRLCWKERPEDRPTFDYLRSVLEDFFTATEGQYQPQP

[12] = target: Tyrosine-protein kinase Lyn (Homo sapiens, UniProt P07948); experiment: Inhibition of LYNB (unknown origin)
[13] = target: Protein-tyrosine kinase 6 (Homo sapiens, UniProt Q13882); experiment: Inhibition of PTK6 (unknown origin)
[14] = target: Proto-oncogene tyrosine-protein kinase Src (Homo sapiens, UniProt P12931); experiment: Inhibition of SRC (unknown origin)
[15] = target: Tyrosine-protein kinase Srms (Homo sapiens, UniProt Q9H3Y6); experiment: Inhibition of SRMS (unknown origin)
Chain of Tyrosine-protein kinase Srms (Q9H3Y6 whole entry): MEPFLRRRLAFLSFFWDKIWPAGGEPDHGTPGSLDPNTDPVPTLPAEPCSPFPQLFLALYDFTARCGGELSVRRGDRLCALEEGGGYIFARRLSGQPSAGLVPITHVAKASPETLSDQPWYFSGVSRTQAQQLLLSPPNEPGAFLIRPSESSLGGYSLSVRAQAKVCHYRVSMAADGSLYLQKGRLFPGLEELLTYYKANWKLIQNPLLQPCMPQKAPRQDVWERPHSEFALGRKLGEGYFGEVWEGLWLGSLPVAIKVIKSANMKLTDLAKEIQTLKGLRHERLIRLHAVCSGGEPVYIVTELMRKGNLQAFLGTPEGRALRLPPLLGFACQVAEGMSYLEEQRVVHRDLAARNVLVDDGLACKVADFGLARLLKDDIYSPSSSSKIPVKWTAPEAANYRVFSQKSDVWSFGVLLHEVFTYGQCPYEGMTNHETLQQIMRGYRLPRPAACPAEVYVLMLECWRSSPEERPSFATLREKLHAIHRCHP

[16] = target: T3, Tyrosine-protein kinase Tec (Homo sapiens, UniProt P42680); experiment: Inhibition of TEC (unknown origin)
T3 sequence (P42680 whole entry): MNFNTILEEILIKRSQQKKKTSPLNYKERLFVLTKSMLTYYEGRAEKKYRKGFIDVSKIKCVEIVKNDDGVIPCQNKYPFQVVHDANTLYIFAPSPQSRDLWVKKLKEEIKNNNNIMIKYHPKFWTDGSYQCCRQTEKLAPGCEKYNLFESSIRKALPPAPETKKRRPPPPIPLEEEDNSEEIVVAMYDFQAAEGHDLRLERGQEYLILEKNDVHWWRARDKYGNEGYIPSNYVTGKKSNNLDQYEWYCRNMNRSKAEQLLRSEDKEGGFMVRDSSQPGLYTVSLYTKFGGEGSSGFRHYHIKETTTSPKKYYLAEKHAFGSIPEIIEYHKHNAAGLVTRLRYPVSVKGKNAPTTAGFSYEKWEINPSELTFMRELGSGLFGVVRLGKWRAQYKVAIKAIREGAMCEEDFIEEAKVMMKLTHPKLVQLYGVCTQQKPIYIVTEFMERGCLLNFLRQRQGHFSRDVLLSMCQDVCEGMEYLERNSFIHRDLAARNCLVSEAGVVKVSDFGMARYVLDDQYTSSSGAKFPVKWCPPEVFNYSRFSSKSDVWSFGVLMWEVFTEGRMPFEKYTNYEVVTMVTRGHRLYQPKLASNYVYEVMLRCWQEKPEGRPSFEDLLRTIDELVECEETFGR

[17] = target: T4, Tyrosine-protein kinase TXK (Homo sapiens, UniProt P42681); experiment: Inhibition of TXK (unknown origin)
T4 sequence (P42681 whole entry): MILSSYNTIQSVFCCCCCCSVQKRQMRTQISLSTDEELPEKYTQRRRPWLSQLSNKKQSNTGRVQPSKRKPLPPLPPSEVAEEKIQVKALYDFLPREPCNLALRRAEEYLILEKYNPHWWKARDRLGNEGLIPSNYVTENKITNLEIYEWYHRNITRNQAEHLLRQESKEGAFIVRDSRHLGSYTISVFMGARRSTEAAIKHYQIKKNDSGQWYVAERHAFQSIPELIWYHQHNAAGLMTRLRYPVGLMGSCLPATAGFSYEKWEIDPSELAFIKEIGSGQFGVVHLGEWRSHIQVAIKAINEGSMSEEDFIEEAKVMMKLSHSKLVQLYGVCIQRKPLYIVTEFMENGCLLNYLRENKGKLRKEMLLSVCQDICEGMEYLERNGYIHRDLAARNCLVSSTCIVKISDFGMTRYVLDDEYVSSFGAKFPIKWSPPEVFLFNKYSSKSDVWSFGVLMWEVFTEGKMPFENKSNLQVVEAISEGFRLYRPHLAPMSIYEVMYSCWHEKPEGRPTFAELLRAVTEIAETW

[18] = target: Tyrosine-protein kinase Yes (Homo sapiens, UniProt P07947); experiment: Inhibition of YES1 (unknown origin)
[19] = Clearance in Wistar Han rat at 2 mg/kg, iv; type: ADME, organism-based; details: in vivo
[20] = Volume of distribution at steady state in Wistar Han rat at 2 mg/kg, iv; type: ADME, organism-based; details: in vivo, read-out: Vdss
[21] = AUC in Wistar Han rat at 2 mg/kg, iv; type: ADME, organism-based; design: dose 2 mg/kg; details: in vivo
[22] = Half life in Wistar Han rat at 2 mg/kg, iv; type: ADME, organism-based; details: in vivo
[23] = Cmax in Wistar Han rat at 5 mg/kg, po; type: ADME, organism-based; design: route oral, dose 5 mg/kg; details: in vivo
[24] = Tmax in Wistar Han rat at 5 mg/kg, po; type: ADME, organism-based; details: in vivo
[25] = Oral bioavailability in Wistar Han rat at 5 mg/kg; type: ADME, organism-based; details: Wistar Han, in vivo
[26] = Clearance in Beagle dog at 1 mg/kg, iv; type: ADME, organism-based, Canis lupus familiaris; details: in vivo
[27] = Volume of distribution at steady state in Beagle dog at 1 mg/kg, iv; type: ADME, organism-based, Canis lupus familiaris; details: in vivo, read-out: Vdss
[28] = AUC in Beagle dog at 1 mg/kg, iv; type: ADME, organism-based, Canis lupus familiaris; design: dose 1 mg/kg; details: in vivo
[29] = Half life in Beagle dog at 1 mg/kg, iv; type: ADME, organism-based, Canis lupus familiaris; details: in vivo
[30] = Cmax in Beagle dog at 2 mg/kg, po; type: ADME, organism-based, Canis lupus familiaris; design: route oral, dose 2 mg/kg; details: in vivo
[31] = Tmax in Beagle dog at 2 mg/kg, po; type: ADME, organism-based, Canis lupus familiaris; details: in vivo
[32] = Oral bioavailability in Beagle dog at 2 mg/kg; type: ADME, organism-based, Canis lupus familiaris; details: in vivo
Rattus norvegicus = experiment: Antiarthritic activity in Lewis rat model of collagen-induced arthritis assessed as decrease in paw thickness at 15 to 120 mg/kg, po qd and measured for 30 days; type: functional, organism-based; details: dose mg/kg 15-120, time 30.0 day

In the case of Nc1nccn2c([C@@H]3CC[C@H]4CCC(=O)N4C3)nc(-c3ccc(C(=O)Nc4cc(C(F)(F)F)ccn4)cc3C(=O)O)c12, the IC50 [1] is reported as 1410 nM.

CCOc1cc(C(=O)Nc2cc(C(F)(F)F)ccn2)ccc1-c1nc([C@@H]2CC[C@H]3CCC(=O)N3C2)n2ccnc(N)c12 gave an IC50 [1] of 10 nM and an IC50 [2] of 92 nM.

For Nc1nccn2c([C@@H]3CC[C@H]4CCC(=O)N4C3)nc(-c3ccc(C(=O)Nc4cc(C(F)(F)F)ccn4)cc3Oc3ccccc3)c12, the IC50 [3] was 11 nM and the IC50 [1] was 310 nM.

Molecule Nc1nccn2c([C@H]3CN4C(=O)OC[C@@H]4CO3)nc(-c3ccc(C(=O)Nc4cc(C(F)(F)F)ccn4)cc3)c12 has an IC50 [3] of 25 nM and an IC50 [1] of 582 nM.

COc1cc(C(=O)Nc2cc(C(F)(F)F)ccn2)ccc1-c1nc([C@@H]2CC[C@H]3CCC(=O)N3C2)n2ccnc(N)c12 gave an IC50 [4] of 101 nM, an IC50 [5] of 19 nM and an IC50 [6] of 227 nM. For the same molecule, the IC50 [7] was 160 nM, the IC50 [8] was 64 nM and the IC50 [9] was 154 nM. The IC50 [10] was 1230 nM, the IC50 [11] was 26 nM and the IC50 [12] was 162 nM. The IC50 [13] was 84 nM, the IC50 [14] was 71 nM and the IC50 [15] was 16 nM. It also gave an IC50 [16] of 67 nM, an IC50 [17] of 102 nM and an IC50 [18] of 54 nM. The clearance [19] was 53 mL/min/kg, the Vd [20] was 4 L/kg and the AUC [21] was 1.1 µM·h. For the same molecule, the half-life [22] was 3 h, the Cmax [23] was 50 nM and the Tmax [24] was 2.1 h. For the same molecule, the bioavailability [25] was 9.5%, the clearance [26] was 20 mL/min/kg and the Vd [27] was 3 L/kg. For the same molecule, the AUC [28] was 1.6 µM·h, the half-life [29] was 3.4 h and the Cmax [30] was 1100 nM. For the same molecule, the Tmax [31] was 1.5 h, the bioavailability [32] was 108% and the Activity (Rattus norvegicus) was “Dose-dependent effect”.

For CC(C)Oc1cc(C(=O)Nc2cc(C(F)(F)F)ccn2)ccc1-c1nc([C@@H]2CC[C@H]3CCC(=O)N3C2)n2ccnc(N)c12, the IC50 [1] was 41 nM.

Molecule N#Cc1cc(C(=O)Nc2cc(C(F)(F)F)ccn2)ccc1-c1nc([C@@H]2CC[C@H]3CCC(=O)N3C2)n2ccnc(N)c12 has an IC50 [1] of 267 nM.

For NC(=O)c1cc(C(=O)Nc2cc(C(F)(F)F)ccn2)ccc1-c1nc([C@@H]2CC[C@H]3CCC(=O)N3C2)n2ccnc(N)c12, the IC50 [1] was over 3000 nM.

In the case of CN1CC(=O)N2C[C@H](c3nc(-c4ccc(C(=O)Nc5cc(C(F)(F)F)ccn5)cc4F)c4c(N)nccn34)CC[C@H]2C1, the IC50 [3] is reported as 0.26 nM, the IC50 [1] is reported as 16 nM and the IC50 [2] is reported as 104 nM.

C[C@H]1OC(=O)N2C[C@H](c3nc(-c4ccc(C(=O)Nc5cc(C(F)(F)F)ccn5)cc4)c4c(N)nccn34)CC[C@@H]12 showed an IC50 [1] of 3.2 nM and an IC50 [2] of 63 nM.

Molecule Nc1nccn2c([C@H]3CN4C(=O)CC[C@@H]4CO3)nc(-c3ccc(C(=O)Nc4cc(C(F)(F)F)ccn4)cc3)c12 has an IC50 [1] of 7.2 nM and an IC50 [2] of 263 nM.
